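Dose response: 5 concentrations. Exposure: 48 h. Format: 96-well plates. Endpoint: linear interpolation; highest concentration if not reached. GI50 is the concentration that inhibits growth by half. At the TGI there is no net growth.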
What was measured:
Assay in all cases: inhibition of tumour cell growth, NCI panel, 48 h
[1] = test system: K-562 leukemia
[2] = test system: DU-145 prostate
[3] = test system: CAKI-1 renal
[4] = test system: A549 NSCLC
[5] = test system: U251 CNS
[6] = test system: NCI/ADR-RES ovarian
[7] = test system: OVCAR-4 ovarian
[8] = test system: NCI-H23 lung
[9] = test system: OVCAR-8 ovarian
[10] = test system: MDA-MB-435

**Q.** For `COc1cc(S(=O)(=O)Nc2ccc(C(=O)/C=C/c3ccc(O)cc3)cc2)ccc1F`, which GI50 [1] is on record?
**A.** > 100 µM

**Q.** And the TGI [1]?
**A.** > 100 µM

**Q.** What about the GI50 [2] of the same compound?
**A.** > 100 µM

**Q.** What about the TGI [2] of the same compound?
**A.** > 100 µM

**Q.** And the GI50 [3]?
**A.** > 100 µM

**Q.** And the TGI [3]?
**A.** > 100 µM

**Q.** And the GI50 [4]?
**A.** > 100 µM

**Q.** What about the TGI [4] of the same compound?
**A.** > 100 µM

**Q.** What about the GI50 [5] of the same compound?
**A.** > 100 µM

**Q.** And the TGI [5]?
**A.** > 100 µM

**Q.** What about the GI50 [6] of the same compound?
**A.** > 100 µM

**Q.** What about the TGI [6] of the same compound?
**A.** > 100 µM

**Q.** And the GI50 [7]?
**A.** > 100 µM

**Q.** And the TGI [7]?
**A.** > 100 µM

**Q.** And the GI50 [8]?
**A.** > 100 µM

**Q.** What about the TGI [8] of the same compound?
**A.** > 100 µM

**Q.** And the GI50 [9]?
**A.** > 100 µM

**Q.** What about the TGI [9] of the same compound?
**A.** > 100 µM

**Q.** What about the GI50 [10] of the same compound?
**A.** > 100 µM

**Q.** And the TGI [10]?
**A.** > 100 µM
